# In US20070253953A1, “Molecular Signature of the Pten Tumor Suppressor” (REGENTS OF THE UNIVERSITY OF CALIFORNIA, THE, priority 2003, published 2007):
# Key:
# PTEN mutated tumors = settings: cited from earlier work
# LNCaP cells = assay: Cell cycle analysis of LNCaP cells treated with PI3K inhibitor; format: cell-based
# Excerpt: FIG. 5. IGFBP2 plays a functional role in the PI3K-Akt pathway. (A) Cell cycle analysis of vector or IGFBP2 infected LNCaP cells treated with PI3K inhibitor (LY294002). (B and C) Clonagenic assay on wild-type or IGFBP2 knockout mouse embryonic fibroblasts with or without constitutive-active Akt expression (B), or myc expression (C). To examine if IGFBP2 is involved in the PI3K signaling, a pharmacological approach was employed. Consistent with the result in FIG. 3B, LNCaP cells have a high basal level of Akt activation. […] To examine if IGFBP2 plays a biological role for Akt function, clonogenic assay was performed using IGFBP2 knockout MEF (23). While Akt promoted colony formation in IGFBP2 wild type MEF (FIG. 5B, top and left panel), deletion of IGFBP2 abrogated this promoting activity. The requirement of IGFBP2 is specific to Akt because c-myc promoted colony formation in both cells (FIG. 5C). The inability of Akt to promote colony formation in IGFBP2 knockout MEF can be rescued by re-introduction of IGFBP2 (FIG. 5B).
# IGFBP2 = settings: patients treated (ref 28); cited from earlier work
compound,measurement,setting,value
CO[C@H]1C[C@@H]2CC[C@@H](C)[C@@](O)(O2)C(=O)C(=O)N2CCCC[C@H]2C(=O)O[C@H]([C@H](C)C[C@@H]2CC[C@@H](OC(=O)C(C)(CO)CO)[C@H](OC)C2)CC(=O)[C@H](C)/C=C(\C)[C@@H](O)[C@@H](OC)C(=O)[C@H](C)C[C@H](C)/C=C/C=C/C=C/1C [CCI-779],inhibition of PTEN mutated cancer cells,PTEN mutated tumors; PTEN mutated cancer cells,effectively inhibits
same,sensitivity of tumors with PTEN mutations,"PTEN mutated tumors; tumors with PTEN mutations (refs 22, 27)",more sensitive
O=c1cc(N2CCOCC2)oc2c(-c3ccccc3)cccc12 [LY294002],decrease of the percentage of cells in S phase,LNCaP cells,40%
"IGF-l: insulin-like growth factor 1, a stimulus for Akt activation",level of IGFBP2 in serum,IGFBP2,elevated level
